In ChEMBL document CHEMBL1201862, “PubChem BioAssay data set” (2004):
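Each compound was tested at five concentrations against cells in 96-well plates for 48 hours. The concentration for 50% growth inhibition is given as GI50.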 The source made the active and inactive calls. No stated cut-off is given here; in the data, active = GI50 up to about 1.1 µM and inactive = higher.

Legend:
Experiment in all cases: inhibition of tumour cell growth, NCI panel, 48 h
RXF 393 = system: RXF 393
HCT-15 = system: HCT-15
SNB-19 = system: SNB-19
OVCAR-4 = system: OVCAR-4
HCC 2998 = system: HCC 2998
COLO 205 = system: COLO 205
NCI-H23 = system: NCI-H23
SF-295 = system: SF-295
MCF7 = system: MCF7
HOP-62 = system: HOP-62
HCT-116 = system: HCT-116
PC-3 = system: PC-3
HT-29 = system: HT-29
OVCAR-5 = system: OVCAR-5
A549 = system: A549
LOX IMVI = system: LOX IMVI
ACHN = system: ACHN
A498 = system: A498
SR = system: SR
SF-268 = system: SF-268

Row | SMILES | GI50 (RXF 393) | GI50 (HCT-15) [nM] | GI50 (SNB-19) | GI50 (OVCAR-4) | GI50 (HCC 2998) | GI50 (COLO 205) | GI50 (NCI-H23) | GI50 (SF-295) | GI50 (MCF7) | GI50 (HOP-62) | GI50 (HCT-116) | GI50 (PC-3) | GI50 (HT-29) | GI50 (OVCAR-5) | GI50 (A549) | GI50 (LOX IMVI) | GI50 (ACHN) | GI50 (A498) | GI50 (SR) | GI50 (SF-268)
1 | Nc1cc2c(c3ccccc13)C(CCl)CN2C(=O)c1cc2cc(NC(=O)Nc3ccc4[nH]c(C(=O)N5CC(CCl)c6c5cc(N)c5ccccc65)cc4c3)ccc2[nH]1 (stereo not given) | 71.9 nM (active) | 1960 | 78.5 nM (active) | 1790 nM (inactive) | 259 nM (active) | 687 nM (active) | 23.9 nM (active) | 40.4 nM (active) | 28.4 nM (active) | 56.8 nM (active) | 172 nM (active) | 171 nM (active) | < 17.6 nM (active) | 612 nM (active) | 47.8 nM (active) | 35.8 nM (active) | < 10 nM (active) | 197 nM (active) | < 10 nM (active) | 51.4 nM (active)
2 | Cc1cc(=O)[nH]c2c1C(=O)c1c(C)cc(=O)n(C)c1C2=O | 138 nM (active) | 123 | 18.5 nM (active) | 195 nM (active) | 26.1 nM (active) | 16.2 nM (active) | 14.2 nM (active) | 167 nM (active) | 16.8 nM (active) | 51.4 nM (active) | 100 nM (active) | 157 nM (active) | 43 nM (active) | 166 nM (active) | 188 nM (active) | 122 nM (active) | 99.5 nM (active) | 214 nM (active) | 125 nM (active) | 129 nM (active)
3 | CCOC(=O)/C=C(\C(=O)OCC)n1ccc(=O)n(CC(=O)OCC)c1=O | 1260 nM (inactive) | 1830 | 19300 nM (inactive) | 3660 nM (inactive) | 16000 nM (inactive) | 1260 nM (inactive) | 8070 nM (inactive) | 17900 nM (inactive) | 3160 nM (inactive) | 20700 nM (inactive) | 1770 nM (inactive) | 4740 nM (inactive) | 5900 nM (inactive) | 4950 nM (inactive) | 17200 nM (inactive) | 2110 nM (inactive) | 1640 nM (inactive) | 17700 nM (inactive) | 2170 nM (inactive) | 13200 nM (inactive)
4 | Cc1ccc2c(c1)C(=O)C1(C2)Cc2cccc(C)c2C1=O (stereo not given) | > 100000 nM (inactive) | > 100000 | 35200 nM (inactive) | > 100000 nM (inactive) | > 100000 nM (inactive) | > 100000 nM (inactive) | > 100000 nM (inactive) | > 100000 nM (inactive) | > 100000 nM (inactive) | 88900 nM (inactive) | > 100000 nM (inactive) | > 100000 nM (inactive) | > 100000 nM (inactive) | > 100000 nM (inactive) | > 100000 nM (inactive) | > 100000 nM (inactive) | > 100000 nM (inactive) | > 100000 nM (inactive) | > 100000 nM (inactive) | > 100000 nM (inactive)
5 | C=C1c2nc3ccccc3n2C=C(c2ccc(Cl)cc2)N1c1ccc(OCCN2CCCCC2)cc1 | > 45000 nM (inactive) | > 45000 | > 45000 nM (inactive) | > 45000 nM (inactive) | > 100000 nM (inactive) | > 45000 nM (inactive) | > 45000 nM (inactive) | > 45000 nM (inactive) | > 45000 nM (inactive) | > 45000 nM (inactive) | > 45000 nM (inactive) | > 45000 nM (inactive) | > 45000 nM (inactive) | > 45000 nM (inactive) | > 45000 nM (inactive) | > 45000 nM (inactive) | > 45000 nM (inactive) | > 45000 nM (inactive) | > 45000 nM (inactive) | 1630 nM (inactive)
6 | CCCCCCCCCCCC[C@@H](O)[C@H]1CC[C@H]([C@H](O)CCCC[C@H](O)CCCCC[C@@H](O)CC2=C[C@H](C)OC2=O)O1 | 3550 nM (inactive) | 2390 | 2830 nM (inactive) | 931 nM (active) | 3430 nM (inactive) | 1750 nM (inactive) | 34 nM (active) | < 48.6 nM (active) | 1640 nM (inactive) | 2590 nM (inactive) | 135 nM (active) | 1530 nM (inactive) | 2100 nM (inactive) | 1180 nM (inactive) | 1290 nM (inactive) | 1190 nM (inactive) | 116 nM (active) | 3550 nM (inactive) | 2540 nM (inactive) | 1860 nM (inactive)
